Results taken from the CheMixHub viscosity set.

Assay: xn = mol fraction of the nth substance listed
Settings: 100 kPa

CS(=O)(=O)O + O
viscosity [mPa·s]
Settings | 293.15 K | 298.15 K | 303.15 K | 308.15 K | 313.15 K | 318.15 K
x1 = 0.003409 | 1.037 | 0.9229 | 0.827 | 0.7471 | – | –
x1 = 0.004307 | 1.042 | 0.9279 | 0.833 | – | – | –
x1 = 0.005194 | 1.051 | 0.9391 | 0.8431 | – | – | –
x1 = 0.006086 | 1.064 | 0.9475 | 0.8496 | – | – | –
x1 = 0.006979 | 1.073 | 0.9565 | 0.8598 | – | – | –
x1 = 0.007862 | 1.08 | 0.964 | 0.866 | – | – | –
x1 = 0.008752 | 1.088 | 0.972 | 0.873 | – | – | –
x1 = 0.0177 | 1.173 | 1.048 | 0.9423 | 0.8535 | 0.7777 | 0.713
x1 = 0.02629 | 1.264 | 1.131 | 1.02 | 0.9254 | 0.8437 | 0.7737
x1 = 0.03475 | 1.351 | 1.211 | 1.094 | 0.9939 | 0.9081 | 0.834
x1 = 0.04308 | 1.441 | 1.293 | 1.169 | 1.064 | 0.9738 | 0.8939
x1 = 0.05122 | 1.523 | 1.368 | 1.237 | 1.126 | 1.031 | 0.948
x1 = 0.05919 | 1.609 | 1.448 | 1.311 | 1.193 | 1.094 | 1.007
x1 = 0.06721 | 1.728 | 1.556 | 1.41 | 1.285 | 1.176 | 1.083
x1 = 0.07493 | 1.826 | 1.647 | 1.493 | 1.361 | 1.247 | 1.148
x1 = 0.08256 | 1.934 | 1.745 | 1.583 | 1.444 | 1.323 | 1.218
x1 = 0.09015 | 2.046 | 1.847 | 1.676 | 1.529 | 1.402 | 1.291
x1 = 0.09748 | 2.16 | 1.95 | 1.769 | 1.615 | 1.48 | 1.363
x1 = 0.1048 | 2.299 | 2.076 | 1.885 | 1.719 | 1.576 | 1.452
x1 = 0.112 | 2.411 | 2.177 | 1.977 | 1.803 | 1.652 | 1.519
